For 4 compounds, IC50 and Specific cell uptake results are on record in publication PMC7435657, “[^99mTc]Tc-DB1 Mimics with Different-Length PEG Spacers: Preclinical Comparison in GRPR-Positive Models” (Molecules, 2020).

For assay [1], the target named is human GRPR (Homo sapiens, UniProt P30550). Description: biochemical. How it is done:
Competition binding assays for DB7, DB13 and DB14 were performed in PC-3 cell membranes.
Competition binding experiments of DB7, […] against [^125 I][I-Tyr^4]BBN were conducted in PC-3 cell membranes. Increasing concentrations of tested peptide (10^−13–10^−5 M) were mixed with the radioligand (40,000 cpm per assay tube, at a 50 pM concentration) and the membrane homogenate in a total volume of 300 μL binding buffer (pH 7.4, 50 mM HEPES, 1% BSA, 5.5 mM MgCl2, 35 μM bacitracin). Triplicates of each concentration point were incubated for 60 min at 22 °C in an Incubator-Orbital Shaker unit (MPM Instr. SrI, Bernareggio, MI, Italy). The incubation was interrupted by adding ice-cold washing buffer (10 mM HEPES pH 7.4, 150 mM NaCl), followed by rapid filtration over glass fiber filters (Whatman GF/B, presoaked in binding buffer) on a Brandel Cell Harvester (Adi Hassel Ingenieur Büro, Munich, Germany). Filters were washed with cold washing buffer and were counted for their radioactivity content in an automated well-type gamma counter [NaI(Tl) 3″ crystal, Canberra Packard Cobra Quantum series instrument]. The 50% inhibitory concentration (IC50) values were calculated by nonlinear regression according to a one-site model applying the PRISM 6 program (Graph Pad Software, San Diego, CA, USA) and are expressed as mean ± SD of three experiments performed in triplicate.

Assay [2] relates to PC-3 cells. Description: Radiotracer uptake (internalized + membrane bound) in PC-3 cells. It counts as cell-based, human. The following applies: 1 h incubation at 37 °C, % of total added radioactivity, mean ± SD of 3 experiments. How it is done: The uptake of [^99mTc]Tc-DB7, [^99mTc]Tc-DB13, and [^99mTc]Tc-DB14 in PC-3 cells is compared in Figure 3. In all cases, the bulk of radioactivity was found on the membrane of PC-3 cells with only a small portion detected within the cells, consistent with a noninternalizing radioantagonist profile.
Figure 3 Specific uptake of [^99mTc]Tc-DB7 (pink bars), [^99mTc]Tc-DB13 (violet bars) and [^99mTc]Tc-DB14 (gray bars) in PC-3 cells after 1 h incubation at 37 °C (checkered bars: internalized, solid bars: membrane bound fractions); results represent the mean ± SD of 3 experiments performed in triplicate.
For internalization assays with [^99mTc]Tc-DB7, [^99mTc]Tc-DB13, and [^99mTc]Tc-DB14, PC-3 cells were seeded in six well plates (≈1 × 10^6 cells per well) 24 h before the experiment. […] Nonspecific internalization was determined by a parallel triplicate series containing 1 μM [Tyr^4]BBN. […] Sample radioactivity was measured on the gamma counter and the percentage, of specific internalized and membrane-bound fractions were calculated with Microsoft Excel (after subtracting nonspecific from overall internalized and membrane-bound counts). Results represent specific internalized ± SD of total added radioactivity per well from three experiments performed in triplicate.

human GRPR, sequence (P30550 whole entry): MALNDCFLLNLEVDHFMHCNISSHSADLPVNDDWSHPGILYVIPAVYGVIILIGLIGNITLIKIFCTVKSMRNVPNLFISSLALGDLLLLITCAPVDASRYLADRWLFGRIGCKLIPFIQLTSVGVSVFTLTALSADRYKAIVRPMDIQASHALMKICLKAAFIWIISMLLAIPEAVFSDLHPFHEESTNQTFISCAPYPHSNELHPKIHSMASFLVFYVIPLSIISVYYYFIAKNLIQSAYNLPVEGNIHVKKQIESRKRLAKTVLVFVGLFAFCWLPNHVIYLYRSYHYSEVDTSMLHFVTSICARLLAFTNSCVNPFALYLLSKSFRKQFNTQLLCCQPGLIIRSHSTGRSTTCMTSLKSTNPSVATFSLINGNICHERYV

Usually IC50 stands for the concentration that gives 50% inhibition. Higher therefore signals a need for much substance. Regarding `CCNC(=O)[C@H](CC(C)C)NC(=O)[C@H](Cc1c[nH]cn1)NC(=O)CNC(=O)[C@@H](NC(=O)[C@H](C)NC(=O)[C@H](Cc1c[nH]c2ccccc12)NC(=O)[C@H](CCC(N)=O)NC(=O)[C@@H](Cc1ccccc1)NC(=O)COCCOCCNC(=O)C(CNCCN)CNCCN)C(C)C` [DB7, [N4-PEGx-DPhe^6,Leu-NHEt^13]BBN(6-13)], the 50% inhibitory concentration (IC50) in assay [1] turned out to be 0.93 ± 0.01 nM. Still for that read-out and setting: next, `CCNC(=O)[C@H](CC(C)C)NC(=O)[C@H](Cc1c[nH]cn1)NC(=O)CNC(=O)[C@@H](NC(=O)[C@H](C)NC(=O)[C@H](Cc1c[nH]c2ccccc12)NC(=O)[C@H](CCC(N)=O)NC(=O)[C@@H](Cc1ccccc1)NC(=O)CCOCCOCCOCCNC(=O)C(CNCCN)CNCCN)C(C)C` [DB13, [N4-PEGx-DPhe^6,Leu-NHEt^13]BBN(6-13)]: 1.03 ± 0.01 nM; `CCNC(=O)[C@H](CC(C)C)NC(=O)[C@H](Cc1c[nH]cn1)NC(=O)CNC(=O)[C@@H](NC(=O)[C@H](C)NC(=O)[C@H](Cc1c[nH]c2ccccc12)NC(=O)[C@H](CCC(N)=O)NC(=O)[C@@H](Cc1ccccc1)NC(=O)CCOCCOCCOCCOCCNC(=O)C(CNCCN)CNCCN)C(C)C` [DB14, [N4-PEGx-DPhe^6,Leu-NHEt^13]BBN(6-13)]: 1.18 ± 0.09 nM. Take “[^99mTc]Tc-[N4-PEGx-DPhe^6,Leu-NHEt^13]BBN(6-13) [[^99mTc]Tc-DB7]”: the Specific cell uptake in assay [2] came out at 2.6 ± 0.5%.
